Experimental data as given in PubChem BioAssay AID1963435 (Molecular Pharmacology Branch, DTP, NCI, 2024).

Tested on: PANC-1 complex spheroid growth, percent test/control
Experiment: Anticancer human tumor PANC-1 cell line growth inhibition [Asc];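 further: spheroids exposed to agents for 7 days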;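 on viability, T/C: percent viability relative to DMSO vehicle wells taken as 100%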
Settings: for IC50: curve of first compound; for viability, T/C: stronger effect = lower value
How it was run: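 Complex solid-tumor spheroids incorporating human endothelial and mesenchymal stem cells received single agents or combinations over half-log dilution ranges anchored to clinical Cmax.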

[1] = second compound 0.00316 µM, first compound 0.0316 µM
[2] = second compound 0.00316 µM, first compound 0.1 µM
[3] = second compound 0.00316 µM, first compound 0.316 µM
[4] = second compound 0.00316 µM, first compound 1 µM
[5] = second compound 0.00316 µM, first compound 3.16 µM
[6] = second compound 0.00316 µM, first compound 10 µM
[7] = second compound 0.01 µM, first compound 0.0316 µM
[8] = second compound 0.01 µM, first compound 0.1 µM
[9] = second compound 0.01 µM, first compound 0.316 µM
[10] = second compound 0.01 µM, first compound 1 µM
[11] = second compound 0.01 µM, first compound 3.16 µM
[12] = second compound 0.01 µM, first compound 10 µM
[13] = second compound 0.0316 µM, first compound 0.0316 µM
[14] = second compound 0.0316 µM, first compound 0.1 µM
[15] = second compound 0.0316 µM, first compound 0.316 µM
[16] = second compound 0.0316 µM, first compound 1 µM
[17] = second compound 0.0316 µM, first compound 3.16 µM
[18] = second compound 0.0316 µM, first compound 10 µM
[19] = second compound 0.1 µM, first compound 0.0316 µM
[20] = second compound 0.1 µM, first compound 0.1 µM
[21] = second compound 0.1 µM, first compound 0.316 µM
[22] = second compound 0.1 µM, first compound 1 µM
[23] = second compound 0.1 µM, first compound 3.16 µM
[24] = second compound 0.1 µM, first compound 10 µM
[25] = second compound 0.316 µM, first compound 0.0316 µM
[26] = second compound 0.316 µM, first compound 0.1 µM
[27] = second compound 0.316 µM, first compound 0.316 µM
[28] = second compound 0.316 µM, first compound 1 µM
[29] = second compound 0.316 µM, first compound 3.16 µM
[30] = second compound 0.316 µM, first compound 10 µM
[31] = second compound 1 µM, first compound 0.0316 µM
[32] = second compound 1 µM, first compound 0.1 µM
[33] = second compound 1 µM, first compound 0.316 µM
[34] = second compound 1 µM, first compound 1 µM
[35] = second compound 1 µM, first compound 3.16 µM
[36] = second compound 1 µM, first compound 10 µM

Compound: NC(=O)C(=Cn1cnc(-c2cc(C(F)(F)F)cc(C(F)(F)F)c2)n1)c1cncnc1 + Cc1c(S(C)(=O)=O)c(-c2cc(F)cc(N3CCN(c4ccc(NS(=O)(=O)c5ccc(NC(CCN6CCC(C(=O)OCCCP(=O)(O)O)CC6)CSc6ccccc6)c(S(=O)(=O)C(F)(F)F)c5)cc4)CC3)c2)c(-c2ccc(Cl)cc2)n1C(C)C
- IC50 (second compound 0.0316 µM): > 0.3 µM
- IC50 (second compound 0.1 µM): > 0.3 µM
- IC50 (second compound 0.316 µM): > 0.3 µM
- IC50 (second compound 1 µM): > 0.3 µM
- IC50 (second compound 3.16 µM): > 0.3 µM
- IC50 (second compound 10 µM): > 0.3 µM
- viability, T/C (second compound 0.0316 µM, first compound 0.000949 µM): 103%
- viability, T/C (second compound 0.0316 µM, first compound 0.003 µM): 90.5%
- viability, T/C (second compound 0.0316 µM, first compound 0.00949 µM): 93.7%
- viability, T/C (second compound 0.0316 µM, first compound 0.03 µM): 91%
- viability, T/C (second compound 0.0316 µM, first compound 0.0949 µM): 118%
- viability, T/C (second compound 0.0316 µM, first compound 0.3 µM): 90.8%
- viability, T/C (second compound 0.1 µM, first compound 0.000949 µM): 96.3%
- viability, T/C (second compound 0.1 µM, first compound 0.003 µM): 102%
- viability, T/C (second compound 0.1 µM, first compound 0.00949 µM): 97.4%
- viability, T/C (second compound 0.1 µM, first compound 0.03 µM): 102%
- viability, T/C (second compound 0.1 µM, first compound 0.0949 µM): 121%
- viability, T/C (second compound 0.1 µM, first compound 0.3 µM): 84.3%
- viability, T/C (second compound 0.316 µM, first compound 0.000949 µM): 105%
- viability, T/C (second compound 0.316 µM, first compound 0.003 µM): 93.6%
- viability, T/C (second compound 0.316 µM, first compound 0.00949 µM): 101%
- viability, T/C (second compound 0.316 µM, first compound 0.03 µM): 98.5%
- viability, T/C (second compound 0.316 µM, first compound 0.0949 µM): 122%
- viability, T/C (second compound 0.316 µM, first compound 0.3 µM): 99.9%
- viability, T/C (second compound 1 µM, first compound 0.000949 µM): 105%
- viability, T/C (second compound 1 µM, first compound 0.003 µM): 101%
- viability, T/C (second compound 1 µM, first compound 0.00949 µM): 97.7%
- viability, T/C (second compound 1 µM, first compound 0.03 µM): 94%
- viability, T/C (second compound 1 µM, first compound 0.0949 µM): 130%
- viability, T/C (second compound 1 µM, first compound 0.3 µM): 84.5%
- viability, T/C (second compound 3.16 µM, first compound 0.000949 µM): 108%
- viability, T/C (second compound 3.16 µM, first compound 0.003 µM): 94.5%
- viability, T/C (second compound 3.16 µM, first compound 0.00949 µM): 98.1%
- viability, T/C (second compound 3.16 µM, first compound 0.03 µM): 104%
- viability, T/C (second compound 3.16 µM, first compound 0.0949 µM): 120%
- viability, T/C (second compound 3.16 µM, first compound 0.3 µM): 79.3%
- viability, T/C (second compound 10 µM, first compound 0.000949 µM): 152%
- viability, T/C (second compound 10 µM, first compound 0.003 µM): 192%
- viability, T/C (second compound 10 µM, first compound 0.00949 µM): 181%
- viability, T/C (second compound 10 µM, first compound 0.03 µM): 205%
- viability, T/C (second compound 10 µM, first compound 0.0949 µM): 196%
- viability, T/C (second compound 10 µM, first compound 0.3 µM): 86.7%

Compound: C#Cc1c(F)ccc2cc(O)cc(-c3ncc4c(N5CC6CCC(C5)N6)nc(OCC56CCCN5CC(F)C6)nc4c3F)c12 (stereo unspecified) + CNC(C)C(=O)NC1CN(S(=O)(=O)c2cccc(S(=O)(=O)N3CCC4CCC(C(=O)NC(c5ccccc5)c5ccccc5)N4C(=O)C(NC(=O)C(C)NC)C3)c2)CCC2CCC(C(=O)NC(c3ccccc3)c3ccccc3)N2C1=O
- IC50 (second compound 0.00316 µM): > 10 µM
- IC50 (second compound 0.01 µM): > 10 µM
- IC50 (second compound 0.0316 µM): > 10 µM
- IC50 (second compound 0.1 µM): > 10 µM
- IC50 (second compound 0.316 µM): > 10 µM
- IC50 (second compound 1 µM): > 10 µM
- viability, T/C [1]: 93.3%
- viability, T/C [2]: 85.7%
- viability, T/C [3]: 88%
- viability, T/C [4]: 85.6%
- viability, T/C [5]: 91%
- viability, T/C [6]: 78%
- viability, T/C [7]: 91.6%
- viability, T/C [8]: 81.9%
- viability, T/C [9]: 89.2%
- viability, T/C [10]: 76.4%
- viability, T/C [11]: 86.5%
- viability, T/C [12]: 78.7%
- viability, T/C [13]: 88.9%
- viability, T/C [14]: 77.8%
- viability, T/C [15]: 76.6%
- viability, T/C [16]: 82%
- viability, T/C [17]: 79.7%
- viability, T/C [18]: 70.1%
- viability, T/C [19]: 90.8%
- viability, T/C [20]: 85.2%
- viability, T/C [21]: 85.6%
- viability, T/C [22]: 73.7%
- viability, T/C [23]: 78.8%
- viability, T/C [24]: 75.4%
- viability, T/C [25]: 83%
- viability, T/C [26]: 81.8%
- viability, T/C [27]: 77.1%
- viability, T/C [28]: 76.4%
- viability, T/C [29]: 79.6%
- viability, T/C [30]: 70.3%
- viability, T/C [31]: 90.1%
- viability, T/C [32]: 82.2%
- viability, T/C [33]: 77.1%
- viability, T/C [34]: 80.4%
- viability, T/C [35]: 77.8%
- viability, T/C [36]: 69.2%

Compound: C=C(F)C(=O)N1CCN(c2nc(OCC3CCCN3C)nc3c2CCN(c2cccc4cccc(Cl)c24)C3)CC1CC#N (stereo unspecified) + CNC(C)C(=O)NC1CN(S(=O)(=O)c2cccc(S(=O)(=O)N3CCC4CCC(C(=O)NC(c5ccccc5)c5ccccc5)N4C(=O)C(NC(=O)C(C)NC)C3)c2)CCC2CCC(C(=O)NC(c3ccccc3)c3ccccc3)N2C1=O
- IC50 (second compound 0.00316 µM): 5.52 µM
- IC50 (second compound 0.01 µM): 5.29 µM
- IC50 (second compound 0.0316 µM): 5.31 µM
- IC50 (second compound 0.1 µM): 5.4 µM
- IC50 (second compound 0.316 µM): 2.64 µM
- IC50 (second compound 1 µM): 4.05 µM
- viability, T/C [1]: 99.5%
- viability, T/C [2]: 99.1%
- viability, T/C [3]: 101%
- viability, T/C [4]: 92.4%
- viability, T/C [5]: 91.6%
- viability, T/C [6]: 5.56%
- viability, T/C [7]: 95.6%
- viability, T/C [8]: 92.4%
- viability, T/C [9]: 92.4%
- viability, T/C [10]: 100%
- viability, T/C [11]: 85.1%
- viability, T/C [12]: 6.24%
- viability, T/C [13]: 88.1%
- viability, T/C [14]: 86.8%
- viability, T/C [15]: 107%
- viability, T/C [16]: 91.8%
- viability, T/C [17]: 86.8%
- viability, T/C [18]: 5.07%
- viability, T/C [19]: 90.5%
- viability, T/C [20]: 102%
- viability, T/C [21]: 90.3%
- viability, T/C [22]: 99.3%
- viability, T/C [23]: 87.6%
- viability, T/C [24]: 6.55%
- viability, T/C [25]: 89.2%
- viability, T/C [26]: 92.4%
- viability, T/C [27]: 96.2%
- viability, T/C [28]: 95.1%
- viability, T/C [29]: 41.9%
- viability, T/C [30]: 4.83%
- viability, T/C [31]: 84.8%
- viability, T/C [32]: 91.3%
- viability, T/C [33]: 93.4%
- viability, T/C [34]: 95.4%
- viability, T/C [35]: 63.1%
- viability, T/C [36]: 2.3%
